Experiments:
[1] = target: recombinant human Estrogen Receptor alpha ligand binding domain (ER alpha-LBD (GST)) (Homo sapiens (Human), UniProt P03372); assay: ERα binding assay (LanthaScreen TR-FRET competition); conditions: TR-FRET, displacement of Fluormone ES2
Outline: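 Competition binding to GST-tagged human ERα ligand-binding domain, read by LanthaScreen TR-FRET: Tb-anti-GST antibody labels the receptor and compounds displace a fluorescent tracer, lowering the signal. IC50 was taken from dose-response curve fitting.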

[2] = target: T1, Estrogen Receptor (ERα) in MCF-7 cells (Homo sapiens (Human), UniProt P03372); assay: MCF-7 ER down-regulation assay (immuno-fluorescence); format: cell-based
T1 sequence (P03372 whole entry): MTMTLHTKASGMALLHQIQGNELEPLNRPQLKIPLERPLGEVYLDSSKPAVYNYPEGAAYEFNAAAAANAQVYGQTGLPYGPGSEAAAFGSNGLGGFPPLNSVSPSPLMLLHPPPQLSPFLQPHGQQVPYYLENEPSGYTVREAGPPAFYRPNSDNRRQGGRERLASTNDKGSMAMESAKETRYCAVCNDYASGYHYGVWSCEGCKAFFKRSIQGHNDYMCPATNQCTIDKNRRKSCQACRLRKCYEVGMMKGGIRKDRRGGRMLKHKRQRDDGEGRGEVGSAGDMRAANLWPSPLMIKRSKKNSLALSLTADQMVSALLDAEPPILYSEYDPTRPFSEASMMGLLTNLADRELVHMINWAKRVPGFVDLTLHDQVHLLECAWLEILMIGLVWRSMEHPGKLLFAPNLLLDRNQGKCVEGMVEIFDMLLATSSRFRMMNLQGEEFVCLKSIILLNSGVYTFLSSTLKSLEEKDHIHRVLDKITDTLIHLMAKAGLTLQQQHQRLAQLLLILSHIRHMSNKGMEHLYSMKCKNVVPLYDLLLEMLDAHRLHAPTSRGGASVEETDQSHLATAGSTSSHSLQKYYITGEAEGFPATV
Outline: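 Compounds dispensed acoustically from DMSO stocks onto MCF-7 cells; cells fixed 20 min at room temperature, then automated immunostaining for ERα with overnight incubation at 4° C. Read-out is mean total ER fluorescence intensity normalized to cell number (intensity per cell), with curve fitting for concentration-response values.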

[3] = target: estrogen receptor (ERα) in CAMA-1 cells (Homo sapiens (Human), UniProt P03372); assay: Western blotting assay, ER down-regulation in CAMA-1; format: cell-based; conditions: 100 nM compound, 48 h, normalised to 100 nM fulvestrant
Chain of estrogen receptor (ERα) in CAMA-1 cells (P03372 whole entry): as above
Description: (§1) Cells were incubated with compounds (100 nM) or vehicle control (0.1% DMSO) for 48 h at 37° C., 5% CO2 before washing once with PBS and lysing with 80 μl lysis buffer (25 mM Tris/HCl, 3 mM EDTA, 3 mM EGTA, 50 mM NaF, 2 mM sodium orthovanadate, 0.27 M sucrose, 10 mM β-glycerophosphate, 5 mM sodium pyrophosphate, 0.5% TritonX-100, pH 6.8) on ice.
(§2) Samples were boiled for 10 min at 95° C. and then frozen at −20° C. until ready for use.
(§3) The blot was stained with Ponceau S (P7170, Sigma) and cut according to appropriate molecular weight markers.
(§4) Membranes were blocked for 1 hour at room temp in 5% Marvel (w/v) in phosphate-buffered saline containing 0.05% Tween™ 20 (PBS/Tween). Blots were then incubated with anti-ERα (SP1) rabbit monoclonal antibody (Thermofisher) diluted 1:1000 at 4° C. overnight (with gentle shaking) followed by several washes with PBS/Tween. […] All antibodies were made up in 5% Marvel (w/v) in PBS/Tween.
(§5) Down-regulation of the ERα receptor was normalised to the vehicle control (0% down-regulation) and the 100 nM fulvestrant control (100% down-regulation) run within the same gel.

[4] = target: T1, Estrogen Receptor (ERα) in MCF-7 cells; assay: Western blotting assay, ER down-regulation in MCF-7; format: cell-based; conditions: 100 nM compound, 48 h, normalised to 100 nM fulvestrant
Description: as §1, §2, §3, §4, §5

[5] = log D (shake flask, 1-octanol/aqueous buffer); format: physicochemical
Outline: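 Distribution between 1-octanol and aqueous buffer at pH 7.4 was measured by shake flask, with compounds run in mixtures of ten. Relative concentrations in each phase were quantified by UPLC with quantitative MS. Caffeine served as a low-log D QC sample in all runs.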

[6] = Human plasma protein binding (equilibrium dialysis); format: in vitro ADME; conditions: dialysis 18 hours
Outline: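 Fraction unbound (fu %) in human plasma, from LC/MSMS of plasma and buffer sides (7-point plasma calibration) after 18 h rapid equilibrium dialysis. Single determinations, with compounds pooled up to 10 per plasma pool.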

[7] = Human Caco-2 bidirectional permeability A to B and B to A; format: in vitro ADME; conditions: for Papp at 2 h: Caco-2, 2 hours, pH 7.4; for efflux ratio at 2 h: Caco-2, pH 7.4
Description: An automated assay was used to determine the bidirectional permeability (efflux and uptake) of compounds in Caco-2 cells carried out over 2 hours at pH 7.4.
The efflux ratio (ER) can be determined using the following equation: ER=Papp(B-A)/Papp(A-B) Where Papp (B-A) indicates the apparent permeability coefficient in basolateral to apical direction, and Papp (A-B) indicates the apparent permeability coefficient in apical to basolateral direction. Human Caco-2 Passive Permeability A to B Papp

[8] = 1-octanol/aqueous buffer, pH 7.4, pH 7.4, 1-octanol/aqueous buffer
[9] = pH 7.4, 1-octanol/aqueous buffer

Chain of recombinant human Estrogen Receptor alpha ligand binding domain (ER alpha-LBD (GST)) (P03372 307-554): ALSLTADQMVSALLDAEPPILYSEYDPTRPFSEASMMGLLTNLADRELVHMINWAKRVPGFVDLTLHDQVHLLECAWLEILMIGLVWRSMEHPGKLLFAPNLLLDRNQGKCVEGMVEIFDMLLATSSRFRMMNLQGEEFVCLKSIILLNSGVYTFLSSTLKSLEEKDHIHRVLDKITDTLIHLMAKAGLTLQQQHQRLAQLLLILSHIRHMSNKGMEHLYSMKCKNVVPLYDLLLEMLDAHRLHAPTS

| SMILES | IC50 [1] | IC50 [2] | CAMA1 Western % ER deg vs Fv [3] | MCF7 Western % ER deg vs Fv [4] | logD [5, 8] | Human plasma protein binding (% free) [6] | Papp at 2 h [7] | efflux ratio at 2 h [7] | logD [5, 9] |
| --- | --- | --- | --- | --- | --- | --- | --- | --- | --- |
| COCC(F)(F)CN1[C@H](c2ccc(NC3CN(CCCF)C3)cc2OC)c2ccc3[nH]ncc3c2C[C@H]1C [Example 1, N-(4-((6S,8R)-7-(2,2-difluoro-3-methoxypropyl)-8-methyl-6,7,8,9-tetrahydro-3H-pyrazolo[4,3-f]isoquinolin-6-yl)-3-methoxyphenyl)-1-(3-fluoropropyl)azetidin-3-amine] | 3.7 nM | 0.1 nM | 92% | 91% | 3.4 | 8.3 % free | 0.9 ×10⁻⁶ cm/s | 9.4 |  |
| COCC(F)(F)CN1[C@H](c2ccc(NC3CN(CCCF)C3)cn2)c2ccc3[nH]ncc3c2C[C@H]1C [Example 2, 6-((6S,8R)-7-(2,2-difluoro-3-methoxypropyl)-8-methyl-6,7,8,9-tetrahydro-3H-pyrazolo[4,3-f]isoquinolin-6-yl)-N-(1-(3-fluoropropyl)azetidin-3-yl)pyridin-3-amine] | 2.8 nM | 3.1 nM | 95% | 93% | 2.6 | 28 % free | 3.9 ×10⁻⁶ cm/s | 8.4 |  |
| C[C@@H]1Cc2c(ccc3[nH]ncc23)[C@@H](c2ccc(NC3CN(CCCF)C3)cn2)N1CC1(F)CC1 [Example 3, 6-((6S,8R)-7-((1-fluorocyclopropyl)methyl)-8-methyl-6,7,8,9-tetrahydro-3H-pyrazolo[4,3-f]isoquinolin-6-yl)-N-(1-(3-fluoropropyl)azetidin-3-yl)pyridin-3-amine] | 6.5 nM | 0.64 nM | 102% | 90% |  | 26 % free | 2.3 ×10⁻⁶ cm/s | 9.2 | 2.5 |
| COc1cc(NC2CN(CCCF)C2)ccc1[C@@H]1c2ccc3[nH]ncc3c2C[C@@H](C)N1CC1(F)CC1 [Example 6, N-(4-((6S,8R)-7-((1-fluorocyclopropyl)methyl)-8-methyl-6,7,8,9-tetrahydro-3H-pyrazolo[4,3-f]isoquinolin-6-yl)-3-methoxyphenyl)-1-(3-fluoropropyl)azetidin-3-amine] | 8.8 nM | 0.35 nM | 84% | 89% |  | 34 % free | 0.9 ×10⁻⁶ cm/s | 28 | 2.4 |
| C[C@@H]1Cc2c(ccc3[nH]ncc23)[C@@H](c2ccc(NC3CN(CCCF)C3)cn2)N1CC(F)(F)CO [Example 16, 2,2-difluoro-3-((6S,8R)-6-(5-((1-(3-fluoropropyl)azetidin-3-yl)amino)pyridin-2-yl)-8-methyl-3,6,8,9-tetrahydro-7H-pyrazolo[4,3-f]isoquinolin-7-yl)propan-1-ol] | 6.9 nM | 0.54 nM | 105% | 104% |  | 64 % free | 1.6 ×10⁻⁶ cm/s | 9.7 | 2 |
| C[C@@H]1Cc2c(ccc3[nH]ncc23)[C@@H](c2ccc(NC3CN(CCCF)C3)cn2)N1CC(F)(F)F [Example 17, N-(1-(3-fluoropropyl)azetidin-3-yl)-6-((6S,8R)-8-methyl-7-(2,2,2-trifluoroethyl)-6,7,8,9-tetrahydro-3H-pyrazolo[4,3-f]isoquinolin-6-yl)pyridin-3-amine] |  |  | 96% | 92% | 2.9 | 23 % free | 4.7 ×10⁻⁶ cm/s |  |  |
| C[C@@H]1Cc2c(ccc3[nH]ncc23)[C@@H](c2ncc(NC3CN(CCCF)C3)cc2F)N1CC1(F)CC1 [Example 18, 5-fluoro-6-((6S,8R)-7-((1-fluorocyclopropyl)methyl)-8-methyl-6,7,8,9-tetrahydro-3H-pyrazolo[4,3-f]isoquinolin-6-yl)-N-(1-(3-fluoropropyl)azetidin-3-yl)pyridin-3-amine] | 29 nM | 0.42 nM | 95% | 103% | 2.6 | 34 % free |  |  |  |
| COc1cc(NC2CN(CCCF)C2)ccc1[C@@H]1c2ccc3[nH]ncc3c2C[C@@H](C)N1CC(C)(F)F [Example 19, N-(4-((6S,8R)-7-(2,2-difluoropropyl)-8-methyl-6,7,8,9-tetrahydro-3H-pyrazolo[4,3-f]isoquinolin-6-yl)-3-methoxyphenyl)-1-(3-fluoropropyl)azetidin-3-amine] | 2.6 nM | 0.063 nM | 94% | 92% |  | 4.3 % free | 4.2 ×10⁻⁶ cm/s | 2.6 | 3.7 |
| COc1cc(NC2CN(CCCF)C2)ccc1[C@@H]1c2ccc3[nH]ncc3c2C[C@@H](C)N1CC(F)F [Example 21, N-(4-((6S,8R)-7-(2,2-difluoroethyl)-8-methyl-6,7,8,9-tetrahydro-3H-pyrazolo[4,3-f]isoquinolin-6-yl)-3-methoxyphenyl)-1-(3-fluoropropyl)azetidin-3-amine] | 2.1 nM | 0.098 nM | 101% | 99% | 3.1 | 12 % free | 4 ×10⁻⁶ cm/s | 1.6 |  |
| C[C@@H]1Cc2c(ccc3[nH]ncc23)[C@@H](c2ccc(NC3CN(CCCF)C3)cn2)N1CC(F)F [Example 25, 6-((6S,8R)-7-(2,2-difluoroethyl)-8-methyl-6,7,8,9-tetrahydro-3H-pyrazolo[4,3-f]isoquinolin-6-yl)-N-(1-(3-fluoropropyl)azetidin-3-yl)pyridin-3-amine] | 4.1 nM | 0.33 nM | 96% | 98% | 2.5 | 40 % free | 5 ×10⁻⁶ cm/s | 7.4 |  |
| C[C@@H]1Cc2c(ccc3[nH]ncc23)[C@@H](c2ccc(NC3CN(CCCF)C3)cc2)N1CC(F)(F)F [Example 27, 1-(3-Fluoropropyl)-N-(4-((6R,8R)-8-methyl-7-(2,2,2-trifluoroethyl)-6,7,8,9-tetrahydro-3H-pyrazolo[4,3-f]isoquinolin-6-yl)phenyl)azetidin-3-amine] | 0.81 nM | 0.05 nM | 108% | 110% | 3.8 | 3.8 % free | 5.4 ×10⁻⁶ cm/s | 0.9 |  |
| COc1cc(NC2CN(CCCF)C2)ccc1[C@@H]1c2ccc3[nH]ncc3c2C[C@@H](C)N1CC(F)(F)F [Example 28, 1-(3-fluoropropyl)-N-(3-methoxy-4-((6S,8R)-8-methyl-7-(2,2,2-trifluoroethyl)-6,7,8,9-tetrahydro-3H-pyrazolo[4,3-f]isoquinolin-6-yl)phenyl)azetidin-3-amine] | 5.7 nM | 0.065 nM | 110% | 95% |  | 6 % free | 1.2 ×10⁻⁶ cm/s | 3.8 | 3.6 |
| C[C@@H]1Cc2c(ccc3[nH]ncc23)[C@@H](c2ccc(NC3CN(CCCF)C3)cc2)N1CC(F)F [Example 48, N-(4-((6R,8R)-7-(2,2-difluoroethyl)-8-methyl-6,7,8,9-tetrahydro-3H-pyrazolo[4,3-f]isoquinolin-6-yl)phenyl)-1-(3-fluoropropyl)azetidin-3-amine] | 1.5 nM | 0.078 nM | 94% | 93% | 3.1 | 10 % free |  |  |  |

Reference: patent publication US10131663B2, “Chemical compounds” (AstraZeneca AB, priority 2016, dated 2018)
